Tests used:
[1] = target: human thrombin (Homo sapiens, UniProt P00734); experiment: inhibition of the amidolytic activity of thrombin (chromogenic substrate S-2238); assay type: biochemical; details: for Ki: human thrombin 0.5 nM, substrate S-2238, pH 7.8, room temperature; for q (ratio of the inhibition of trypsin to the inhibition of thrombin): specificity: Ki trypsin / Ki thrombin
Experimental: A differential inhibition of thrombin and other serine proteases by the above compounds is desirable in order to obtain compounds having as high a specificity as possible and at the same time to avoid possible side-effects.
Specific chromogenic peptide substrates can be used to determine the inhibition of the catalytic activity of the above proteases. The inhibition of the amidolytic activity of thrombin and trypsin by the above guanidines was determined as described hereinafter.
The measurements were carried out on microtitre plates at room temperature. For this, in each well of the plate 150 μl of buffer (50 mM Tris, 100 mM NaCl, 0.1% polyethylene glycol; pH 7.8) were mixed with 50 μl of the inhibitor dissolved in DMSO and diluted in the buffer, and 25 μl of human thrombin (0.5 nM final conc.) were added. After incubation for 10 minutes the reaction was started by the addition of chromogenic substrate S-2238 (H-D-Phe-Pip-Arg-paranitroaniline from Kabivitrum; 10 or 50 μm final conc.) and the hydrolysis of the substrate was followed spectrophotometrically on a kinetic microtiter plate reader for 5 minutes. After graphical presentation of the inhibition curves the Ki values were determined according to the method described in Blochem. J. 55, 1955, 170-171.

[2] = target: trypsin; experiment: inhibition of the amidolytic activity of trypsin (chromogenic substrate S-2251); assay type: biochemical; details: substrate S-2251, 200 and 750 μM, otherwise analogous to thrombin

Structure (SMILES)	Ki [1] [µM]	q (ratio of the inhibition of trypsin to the inhibition of thrombin) [1]	Ki [2] [µM]
N=C(N)N1CCC[C@@H](CNC(=O)C[C@H](NS(=O)(=O)N2CCOCC2)C(=O)N(CCNC(=O)c2ccc(=O)[nH]n2)C2CC2)C1 [Example 25]	0.0013	5538	7.2
N=C(N)N1CCC[C@@H](CNC(=O)C[C@H](NC(=O)OCC2CCCCC2)C(=O)N(CC(=O)O)C2CC2)C1 [Example 8, [[(S)-3-[(S)-1-(Amino-imino-methyl)-piperidin-3-ylmethylcarbamoyl]-2-cyclohexylmethoxycarbonylamino-propionyl]cyclopropyl-amino]-acetic acid]	0.017	1588	27
N=C(N)N1CCC[C@@H](CNC(=O)C[C@H](NC(=O)OCc2ccccc2)C(=O)N(CC(=O)O)C2CC2)C1 [Example 3, [[(S)-3-[(S)-1-(amino-imino-methyl)-piperidin-3-ylmethylcarbamoyl]-2-benzyloxycarbonylamino-propionyl]-cyclopropylamino]-acetic acid]	0.012	1583	19
CCCCN1CC(=O)N[C@@H](CC(=O)NC[C@@H]2CCCN(C(=N)N)C2)C1=O [Example 18, N-[(S)-1-(amino-imino-methyl)-piperidin-3-ylmethyl]-2-[(S)-2,6-dioxo-4-butyl-piperazin-2-yl]-acetamide]	2.2	268	590
CCOC(=O)CN(C(=O)[C@H](CC(=O)NC[C@@H]1CCCN(C(=N)N)C1)NC(=O)OCC1CCCCC1)C1CC1 [Example 7, ethyl [[(S)-3-[(S)-1-(amino-imino-methyl)-piperidin-3-ylmethylcarbamoyl]-2-cyciohexylmethoxycarbonylamino-propionyl]-cyclopropyl-amino]-acetate]	2	25	50
CCCCS(=O)(=O)N1CCN(CC(=O)O)C(=O)C1CC(=O)NC[C@@H]1CCCN(C(=N)N)C1 (stereo partly drawn) [Example 17, [3-[(S)-1-(amino-imino-methyl)-piperidin-3-ylmethylcarbamoylmethyl]-4-butylsulphonyl-2-oxo-piperazin-1yl]acetic acid]	1.3	74	96
CCCCN(CC(=O)OCC)C(=O)[C@H](CC(=O)NCC1CN(C(=N)N)CCO1)NC(=O)OCc1ccccc1 (stereo partly drawn) [Example 5b, ethyl [[(S)-3-[4-(amino-imino-methyl)-morpholin-2-ylmethylcarbamoyl]-2-benzyloxycarbonylaminopropionyl]-butyl-amino]-acetate]	0.03	5000	150
N=C(N)N1CCC[C@@H](CNC(=O)C[C@H](NS(=O)(=O)N2CCOCC2)C(=O)N(CCNC(=O)c2cnccn2)C2CC2)C1 [Example 24, (S)-N4-[(S)-1-(amino-imino-methyl)-piperidin-3-ylmethyl]-N1-cyclopropyl-2-morpholin-4-ylsulphonylamino-N1-(2-pyrazin-2-ylcarbonylamino-ethyl)-succinamide]	0.0012	5917	7.1
NC(=NO)N1CCC[C@@H](CNC(=O)C[C@H](NS(=O)(=O)c2ccc3ccccc3c2)C(=O)N(CCNC(=O)c2cnccn2)C2CC2)C1 [Example 22, (S)-N4-[(S)-1-(amino-hydroxyimino-methyl)-piperidin-3-ylmethyl]-N1-cyclopropyl-2-(naphthalen-2-ylsulphonylamino)-N1-[2-(pyrazin-2-ylcarbonylamino)-ethyl]-succinamide]	0.0015	11000	16.5
CCCCN(CCC(=O)OCC)C(=O)[C@H](CC(=O)NCC1CN(C(=N)N)CCO1)NC(=O)OCc1ccccc1 (stereo partly drawn) [Example 5d, ethyl 3-[[(S)-3-[4-(amino-imino-methyl)-morpholin-2-ylmethylcarbamoyl]-2-benzyloxycarbonylaminopropionyl]-butyl-amino]-propionate]	0.13	92	12
CC(C)(C)OC(=O)N[C@@H](CC(=O)NC[C@@H]1CCCN(C(=N)N)C1)C(=O)N(CCNC(=O)c1cnccn1)C1CC1 [Example 19, (S)-N4-[(S)-1-(amino-imino-methyl)-piperidin-3-yimethyl]-2-tert-butoxycarbonylamino-N1-cyclopropyl-N1-(2-pyrazin-2-ylcarbonylamino)-succinamide]	0.0069	449	3.1
N=C(N)N1CCC[C@@H](CNC(=O)C[C@H](NS(=O)(=O)N2CCOCC2)C(=O)N(CCNC(=O)OCc2ccccc2)C2CC2)C1 [Example 23, benzyl 2-[[(S)-3-[(S)-1-(amino-imino-methyl)-piperidin-3-ylmethylcarbamoyl]-2-morpholin-4-ylsulphonylamino-propionyl]cyclopropyl-amino]-ethylcarbamate]	0.0046	2826	13
CCOC(=O)CN(C(=O)[C@H](CC(=O)NC[C@@H]1CCCN(C(=N)N)C1)NC(=O)OCc1ccccc1)C1CC1 [Example 1, ethyl [[(S)-3-[(S)-1-(amino-imino-methyl)-piperidin-3-ylmethylcarbamoyl]-2-benzyloxycarbonylamino-propionyl]-cyclopropyl-amino]-acetate]	1.2	58	70
CCOC(=O)CCN(C(=O)[C@H](CC(=O)NCC1CN(C(=N)N)CCO1)NC(=O)OCc1ccccc1)C1CC1 (stereo partly drawn) [Example 5c, ethyl 3-[[(S)-3-[4-(amino-imino-methyl)-morpholin-2-ylmethylcarbamoyl]-2-benzyloxycarbonylamino-propionyl]-cyclopropyl-amino]-propionate]	0.054	537	29
CCCCN(CCC(=O)O)C(=O)[C@H](CC(=O)NC[C@@H]1CCCN(C(=N)N)C1)NC(=O)OCc1ccccc1 [Example 4c, 3-[[(S)-3-[(S)-1-(amino-imino-methyl)-piperidin-3-ylmethylcarbamoyl]-2-benzyloxycarbonylamino-propionyl]-butyl-amino]propionic acid]	0.3	333	100

The remaining lines, values ahead:

Ki [1] [µM]	q (ratio of the inhibition of trypsin to the inhibition of thrombin) [1]	Ki [2] [µM]	Structure (SMILES)
4.7	5	23.5	CCOC(=O)CN(C(=O)[C@H](CC(=O)NC[C@@H]1CCCN(C(=N)N)C1)NC(=O)c1ccccc1)C1CC1 [Example 13d, ethyl [[(S)-3-[(S)-1-(amino-imino-methyl)-piperidin-3-ylmethylcarbamoyl]-2-benzoylamino-propionyl]-cyclopropyl-amino]-acetate]
0.057	877	50	N=C(N)N1CCC[C@@H](CNC(=O)C[C@H](NC(=O)c2cc(Cl)ccn2)C(=O)N(CC(=O)O)C2CC2)C1 [Example 14c, [[(S)-3-[(S)-1-(amino-imino-methyl)-piperidin-3-ylmethylcarbarnoyl]-2-(4-chloro-pyridin-2-ylcarbonylamino)-propionyl]cyclopropyl-amino]-acetic acid]
0.0061	2459	15	CC(=O)N[C@@H](Cc1c[nH]c2ccccc12)C(=O)N[C@@H](CC(=O)NC[C@@H]1CCCN(C(=N)N)C1)C(=O)N(CCNC(=O)c1cnccn1)C1CC1 [Example 21c, (S)-2-[(S)-2-acetylamino-3-indol-3-yl-propionylamino]-N4-[(S)-1-(amino-imino-methyl)-piperidin-3-ylmethyl]-N1-cyclopropyl-N1-(2-pyrazin-2-ylcarbonylamino-ethyl)-succinamide]
2.7	26	70	CCCCC(=O)N[C@@H](CC(=O)NC[C@@H]1CCCN(C(=N)N)C1)C(=O)N(CC(=O)OCC)C1CC1 [Example 13a, Ethyl [[(S)-3-[(S)-1-(amino-imino-methyl)-piperidin-3-ylmethylcarbamoyl]-2-pentanoylamino-propionyl]-cyclopropyl-amino]acetate]
0.036	694	25	CCCCCC(=O)N[C@@H](CC(=O)NC[C@@H]1CCCN(C(=N)N)C1)C(=O)N(CC(=O)O)C1CC1 [Example 14b, [[(S)-3-[(S)-1-(amino-imino-methyl)-piperidin-3-ylmethylcarbamoyl]-2-hexanoylamino-propionyl]-cyclopropyl-amino]-acetic acid]
2.6	35	91	CCOC(=O)CN(C(=O)[C@H](CC(=O)NC[C@@H]1CCCN(C(=N)N)C1)NC(=O)Cc1ccccc1)C1CC1 [Example 13e]
0.25	332	83	N=C(N)N1CCC[C@@H](CNC(=O)C[C@H](NC(=O)c2ccccc2)C(=O)N(CC(=O)O)C2CC2)C1 [Example 14d, [[(S)-3-[(S)-1-(amino-imino-methyl)-piperidin-3-ylmethylcarbarnoyl]-2-benzoylamino-propionyl]-cyclopropyl-amino]-acetic acid]
